Source: US20160362408A1 (Bayer Pharma Aktiengesellschaft, priority 2013, published 2016)
Counter-ions that a name gives are not always drawn.

Target: T1, recombinant guanylate cyclase reporter cell line (Rattus norvegicus, UniProt P19686+P20595)
T1 construct: expressed in transfected cells
T1 sequence (P19686 1-690): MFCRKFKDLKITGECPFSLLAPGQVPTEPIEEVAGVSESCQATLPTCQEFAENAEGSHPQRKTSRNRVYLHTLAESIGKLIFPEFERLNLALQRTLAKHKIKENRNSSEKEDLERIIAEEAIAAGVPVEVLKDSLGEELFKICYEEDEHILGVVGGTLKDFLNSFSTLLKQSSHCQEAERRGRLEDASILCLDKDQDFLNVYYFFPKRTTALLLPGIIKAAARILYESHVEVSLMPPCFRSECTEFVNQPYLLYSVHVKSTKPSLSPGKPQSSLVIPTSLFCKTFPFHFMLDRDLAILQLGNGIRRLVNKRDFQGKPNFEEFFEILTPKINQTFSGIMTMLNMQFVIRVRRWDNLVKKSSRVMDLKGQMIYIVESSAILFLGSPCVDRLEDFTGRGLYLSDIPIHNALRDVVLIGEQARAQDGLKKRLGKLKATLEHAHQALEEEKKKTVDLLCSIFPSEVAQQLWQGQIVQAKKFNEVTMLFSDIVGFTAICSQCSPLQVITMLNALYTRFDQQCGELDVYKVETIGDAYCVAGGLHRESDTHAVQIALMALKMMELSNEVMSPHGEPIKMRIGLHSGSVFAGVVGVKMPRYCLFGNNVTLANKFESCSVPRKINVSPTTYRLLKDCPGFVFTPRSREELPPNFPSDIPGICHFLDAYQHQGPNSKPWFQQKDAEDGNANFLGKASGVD
T1 sequence (P20595 1-619): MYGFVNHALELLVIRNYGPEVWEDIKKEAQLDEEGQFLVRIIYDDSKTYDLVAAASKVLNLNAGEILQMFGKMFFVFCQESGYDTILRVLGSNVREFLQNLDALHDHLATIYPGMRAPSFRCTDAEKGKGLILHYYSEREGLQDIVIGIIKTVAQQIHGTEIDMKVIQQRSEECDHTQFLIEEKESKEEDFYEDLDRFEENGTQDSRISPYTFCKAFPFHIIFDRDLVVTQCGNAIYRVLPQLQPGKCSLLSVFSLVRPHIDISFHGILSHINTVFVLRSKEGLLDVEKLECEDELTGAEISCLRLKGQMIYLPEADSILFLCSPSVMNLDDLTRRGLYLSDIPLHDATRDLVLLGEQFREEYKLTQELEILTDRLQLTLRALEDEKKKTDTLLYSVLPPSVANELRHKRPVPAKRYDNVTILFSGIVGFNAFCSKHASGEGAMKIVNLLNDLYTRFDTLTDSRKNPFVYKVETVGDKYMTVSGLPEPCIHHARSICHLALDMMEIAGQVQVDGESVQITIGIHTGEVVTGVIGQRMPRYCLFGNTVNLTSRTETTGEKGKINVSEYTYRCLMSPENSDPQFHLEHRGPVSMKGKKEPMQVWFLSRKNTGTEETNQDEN
Assay: Effect on a recombinant guanylate cyclase reporter cell line
Type: cell-based
Settings: MEC = minimum effective concentration; in some cases mean values for individual determinations
Protocol: B-2. Effect on a Recombinant Guanylate Cyclase Reporter Cell Line
The cellular action of the compounds of the invention is determined using a recombinant guanylate cyclase reporter cell line, as described in F. Wunder et al., Anal. Biochem. 339, 104-112 (2005).
Representative MEC values (MEC=minimum effective concentration) for the compounds of the invention are shown in the table below (in some cases as mean values for individual determinations): […]

Row | Structure (SMILES) | MEC [µM]
1 | Cc1noc(C)c1NC(=O)c1c(C)nc2c(OCc3c(F)cccc3F)cc(Cl)cn12 [Example 39, 6-Chloro-8-[(2,6-difluorobenzyl)oxy]-N-(3,5-dimethyl-1,2-oxazol-4-yl)-2-methylimidazo[1,2-a]pyridine-3-carboxamide] | 1.0
2 | Cc1n[nH]c(C(F)(F)F)c1NC(=O)c1c(C)nc2c(OCc3c(F)cccc3F)cc(Cl)cn12 [Example 40, 6-chloro-8-[(2,6-difluorobenzyl)oxy]-2-methyl-N-[3-methyl-5-(trifluoromethyl)-1H-pyrazol-4-yl]imidazo[1,2-a]pyridine-3-carboxamide] | 0.03
3 | Cc1n[nH]c(C)c1NC(=O)c1c(C)nc2c(OCc3c(F)cccc3F)cc(Cl)cn12 [Example 41, 6-chloro-8-[(2,6-difluorobenzyl)oxy]-N-(3,5-dimethyl-1H-pyrazol-4-yl)-2-methylimidazo[1,2-a]pyridine-3-carboxamide] | 0.1
4 | Cc1nn(CCO)c(C)c1NC(=O)c1c(C)nc2c(OCc3c(F)cccc3F)cc(Cl)cn12 [Example 42, 6-chloro-8-[(2,6-difluorobenzyl)oxy]-N-[1-(2-hydroxyethyl)-3,5-dimethyl-1H-pyrazol-4-yl]-2-methylimidazo[1,2-a]pyridine-3-carboxamide] | 0.1
5 | Cc1nn(CC(F)(F)F)c(C)c1NC(=O)c1c(C)nc2c(OCc3c(F)cccc3F)cc(Cl)cn12 [Example 43, 6-chloro-8-[(2,6-difluorobenzyl)oxy]-N-[3,5-dimethyl-1-(2,2,2-trifluoroethyl)-1H-pyrazol-4-yl]-2-methylimidazo[1,2-a]pyridine-3-carboxamide] | 0.03
6 | Cc1nc2c(OCc3c(F)cccc3F)cc(Cl)cn2c1C(=O)Nc1cnn(CC(F)(F)F)c1 [Example 44, 6-chloro-8-[(2,6-difluorobenzyl)oxy]-2-methyl-N-[1-(2,2,2-trifluoroethyl)-1H-pyrazol-4-yl]imidazo[1,2-a]pyridine-3-carboxamide] | 1.0
7 | Cc1nc2c(OCc3c(F)cccc3F)cc(Cl)cn2c1C(=O)Nc1cnn(C(C)C)c1 [Example 45, 6-chloro-8-[(2,6-difluorobenzyl)oxy]-N-(1-isopropyl-1H-pyrazol-4-yl)-2-methylimidazo[1,2-a]pyridine-3-carboxamide] | 0.3
8 | Cc1nc2c(OCc3c(F)cccc3F)cc(Cl)cn2c1C(=O)Nc1cnn(CCO)c1 [Example 46, 6-chloro-8-[(2,6-difluorobenzyl)oxy]-N-[1-(2-hydroxyethyl)-1H-pyrazol-4-yl]-2-methylimidazo[1,2-a]pyridine-3-carboxamide] | 0.1
9 | Cc1nc2c(OCc3c(F)cccc3F)cc(Cl)cn2c1C(=O)Nc1cn[nH]c1C [Example 47, 6-chloro-8-[(2,6-difluorobenzyl)oxy]-2-methyl-N-(5-methyl-1H-pyrazol-4-yl)imidazo[1,2-a]pyridine-3-carboxamide + 6-chloro-8-[(2,6-difluorobenzyl)oxy]-2-methyl-N-(3-methyl-1H-pyrazol-4-yl)imidazo[1,2-a]pyridine-3-carboxamide] | 0.3
10 | Cc1n[nH]c(C)c1NC(=O)c1c(C)nc2c(OCc3c(F)cccc3F)cc(F)cn12 [Example 48, 8-[(2,6-Difluorobenzyl)oxy]-N-(3,5-dimethyl-1H-pyrazol-4-yl)-6-fluoro-2-methylimidazo[1,2-a]pyridine-3-carboxamide] | 0.3
11 | Cc1n[nH]c(C)c1NC(=O)c1c(C)nc2c(OCC3CCCCC3)cccn12 [Example 49, 8-(cyclohexylmethoxy)-N-(3,5-dimethyl-1H-pyrazol-4-yl)-2-methylimidazo[1,2-a]pyridine-3-carboxamide] | 0.1
12 | Cc1n[nH]c(C)c1NC(=O)c1c(C)nc2c(OCc3c(F)cccc3F)cc(N3CCCC3)cn12 [Example 50, 8-[(2,6-difluorobenzyl)oxy]-N-(3,5-dimethyl-1H-pyrazol-4-yl)-2-methyl-6-(pyrrolidin-1-yl)imidazo[1,2-a]pyridine-3-carboxamide] | 1.0
13 | Cc1n[nH]c(C)c1NC(=O)c1c(C)nc2c(OCc3c(F)cccc3F)cc(N3CCOCC3)cn12 [Example 51, 8-[(2,6-difluorobenzyl)oxy]-N-(3,5-dimethyl-1H-pyrazol-4-yl)-2-methyl-6-(morpholin-4-yl)imidazo[1,2-a]pyridine-3-carboxamide] | 1.0

Second part, the compound after the results:

Row | MEC [µM] | Structure (SMILES)
14 | 0.65 | Cc1cc(OCc2c(F)cccc2F)c2nc(C)c(C(=O)Nc3c(C)n[nH]c3C)n2c1 [Example 52, 8-[(2,6-difluorobenzyl)oxy]-N-(3,5-dimethyl-1H-pyrazol-4-yl)-2,6-dimethylimidazo[1,2-a]pyridine-3-carboxamide]
15 | 1.0 | Cc1n[nH]c(C)c1NC(=O)c1c(C)nc2c(OCc3cccc(F)c3F)cc(Cl)cn12 [Example 53, 6-chloro-8-[(2,3-difluorobenzyl)oxy]-N-(3,5-dimethyl-1H-pyrazol-4-yl)-2-methylimidazo[1,2-a]pyridine-3-carboxamide]
16 | 0.03 | Cc1nc2c(OCc3c(F)cccc3F)cccn2c1C(=O)Nc1ccnc2ccc(F)cc12 [Example 54, 8-[(2,6-Difluorobenzyl)oxy]-N-(6-fluoroquinolin-4-yl)-2-methylimidazo[1,2-a]pyridine-3-carboxamide]
17 | 1.0 | Cc1nc2c(OCc3c(F)cccc3F)cccn2c1C(=O)Nc1c(-c2ccccc2)noc1C [Example 55, 8-[(2,6-Difluorobenzyl)oxy]-2-methyl-N-(5-methyl-3-phenyl-1,2-oxazol-4-yl)imidazo[1,2-a]pyridine-3-carboxamide]
18 | 0.1 | Cc1nc2c(OCc3c(F)cccc3F)cccn2c1C(=O)Nc1cccc2ccccc12 [Example 56, 8-[(2,6-difluorobenzyl)oxy]-2-methyl-N-(naphthalen-1-yl)imidazo[1,2-a]pyridine-3-carboxamide]
19 | 3.0 | Cc1nn(C)c(C)c1NC(=O)c1c(C)nc2c(OCc3c(F)cccc3F)cccn12 [Example 57, 8-[(2,6-Difluorobenzyl)oxy]-2-methyl-N-(1,3,5-trimethyl-1H-pyrazol-4-yl)imidazo[1,2-a]pyridine-3-carboxamide]
20 | 0.3 | Cc1cccc(C)c1NC(=O)c1c(C)nc2c(OCc3c(F)cccc3F)cccn12 [Example 58, 8-[(2,6-difluorobenzyl)oxy]-N-(2,6-dimethylphenyl)-2-methylimidazo[1,2-a]pyridine-3-carboxamide]
21 | 1.0 | Cc1nc2c(OCc3c(F)cccc3F)cccn2c1C(=O)Nc1nccc2ccccc12 [Example 59, 8-[(2,6-difluorobenzyl)oxy]-N-(isoquinolin-1-yl)-2-methylimidazo[1,2-a]pyridin-3-carboxamide trifluoroacetate]
22 | 0.3 | Cc1nc2c(OCc3c(F)cccc3F)cccn2c1C(=O)Nc1cccc2cccc(Cl)c12 [Example 60, N-(8-Chloronaphthalen-1-yl)-8-[(2,6-difluorobenzyl)oxy]-2-methylimidazo[1,2-a]pyridine-3-carboxamide trifluoroacetate]
23 | 0.3 | Cc1nc2c(OCc3c(F)cccc3F)cccn2c1C(=O)Nc1cccc2cc(Cl)ccc12 [Example 61]
24 | 1.0 | Cc1nc2c(OCc3c(F)cccc3F)cccn2c1C(=O)Nc1ccc(Cl)c2ccccc12 [Example 62]
25 | 0.3 | Cc1ccc2c(NC(=O)c3c(C)nc4c(OCc5c(F)cccc5F)cccn34)c(C)ccc2n1 [Example 63]
26 | 0.2 | Cc1ccc2c(NC(=O)c3c(C)nc4c(OCc5c(F)cccc5F)cccn34)cccc2n1 [Example 64]
27 | 1.0 | Cc1ccc2cccnc2c1NC(=O)c1c(C)nc2c(OCc3c(F)cccc3F)cccn12 [Example 65]
28 | 0.1 | Cc1ccc2ccccc2c1NC(=O)c1c(C)nc2c(OCc3c(F)cccc3F)cccn12 [Example 66]
29 | 0.3 | Cc1nc2c(OCc3c(F)cccc3F)cccn2c1C(=O)Nc1cccc2cnccc12 [Example 67]
30 | 0.3 | Cc1nc2c(OCc3c(F)cccc3F)cccn2c1C(=O)Nc1cccc2ncccc12 [Example 68]
